Source: ChEMBL document CHEMBL5335868, “Exploring Scaffold Hopping for Novel 2-(Quinolin-4-yloxy)acetamides with Enhanced Antimycobacterial Activity” (ACS Med Chem Lett, 2024)
≈ marks a conversion by molar mass, not a printed value.

Tests used:
Type in all cases: functional
[1] = test system: Mycobacterium tuberculosis; experiment: Antibacterial activity against multi-drug resistant Mycobacterium tuberculosis clinical isolate PT20 assessed as bacterial growth inhibition measured after 7 days by resazurin based assay; details: 168 h, time 7 day
[2] = test system: Mycobacterium tuberculosis; experiment: Antibacterial activity against qcrB-resistant Mycobacterium tuberculosis harbouring T313A mutant assessed as bacterial growth inhibition measured after 7 days by resazurin based assay; details: time 7 day
[3] = test system: Mycobacterium tuberculosis; experiment: Antibacterial activity against multi-drug resistant Mycobacterium tuberculosis clinical isolate PT2 assessed as bacterial growth inhibition measured after 7 days by resazurin based assay; details: 168 h, time 7 day
[4] = test system: Mycobacterium tuberculosis; experiment: Antibacterial activity against multi-drug resistant Mycobacterium tuberculosis clinical isolate PT12 assessed as bacterial growth inhibition measured after 7 days by resazurin based assay; details: 168 h, time 7 day

**Q.** COc1ccc2nc(C)cc(OCC(=O)Nc3ccc(N4CCC(c5ccc(OC(F)(F)F)cc5)CC4)cc3)c2c1 was tested. Which MIC [1] did it give?
**A.** < 0.02 µM

**Q.** What about the MIC [2] of the same compound?
**A.** >8.8 µM

**Q.** What about the MIC [3] of the same compound?
**A.** < 0.02 µM

**Q.** What about the MIC [4] of the same compound?
**A.** < 0.02 µM

**Q.** What does the source list for COc1ccc2nc(C)cc(OCC(=O)Nc3ccc(N4CCC(c5ccccc5)CC4)cc3)c2c1?
**A.** MIC [1]: < 0.02 µM; MIC [2]: >10.4 µM; MIC [3]: < 0.02 µM; MIC [4]: < 0.02 µM

**Q.** With Cc1cc(OCC(=O)Nc2ccc(N3CCC(c4ccccc4)CC3)cc2)c2cc(Cl)ccc2n1 as the compound, how does the MIC [1] read?
**A.** < 0.02 µM

**Q.** And the MIC [2]?
**A.** >10.3 µM

**Q.** And the MIC [3]?
**A.** < 0.02 µM

**Q.** What about the MIC [4] of the same compound?
**A.** < 0.02 µM

**Q.** How did the MIC [1] turn out when Cc1cc(OCC(=O)Nc2ccc(N3CCC(c4ccccc4)CC3)cc2)c2cc(Br)ccc2n1 was run?
**A.** < 0.02 µM

**Q.** What about the MIC [2] of the same compound?
**A.** >9.4 µM

**Q.** And the MIC [3]?
**A.** < 0.02 µM

**Q.** And the MIC [4]?
**A.** < 0.02 µM

**Q.** With NNC(=O)c1ccncc1 [ISONIAZID] as the compound, how does the MIC [2] read?
**A.** 2.3 µM (≈ 0.315 µg/mL)

**Q.** What about the MIC [4] of the same compound?
**A.** 146 µM (≈ 20 µg/mL)

**Q.** With CO[C@H]1/C=C/O[C@@]2(C)Oc3c(C)c(O)c4c(O)c(c(/C=N/N5CCN(C)CC5)c(O)c4c3C2=O)NC(=O)/C(C)=C\C=C\[C@H](C)[C@H](O)[C@@H](C)[C@@H](O)[C@@H](C)[C@H](OC(C)=O)[C@@H]1C [RIFAMPIN] as the compound, how does the MIC [1] read?
**A.** > 48.6 µM

**Q.** What about the MIC [3] of the same compound?
**A.** > 48.6 µM

**Q.** And the MIC [4]?
**A.** > 48.6 µM
